In experiment [1] the target is JAK1 (Homo sapiens (Human), UniProt P23458). The experiment in a line: Biochemical JAK1 kinase assay (LanthaScreen). The method, boiled down: (§1)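 GST-JAK + GFP-STAT1 peptide, HEPES pH 7.5/MgCl2/EGTA/Brij-35 buffer; cpd preincubation 1 h RT; ATP start, 1 h RT; stop with 10 mM EDTA + 2 nM Tb-anti-pSTAT1; TR-FRET 520/495. 4-parameter IC50 → pKi (Cheng-Prusoff).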
Experiment [2] has as its target JAK2 (Homo sapiens (Human), UniProt O60674). The experiment in a line: Biochemical JAK2 kinase assay (LanthaScreen). Here is the method: (§2) Assay 1: Biochemical JAK and Tyk2 Kinase Assays
(§3) A panel of four LanthaScreen JAK biochemical assays (JAK1, 2, 3 and Tyk2) were carried in a common kinase reaction buffer (50 mM HEPES, pH 7.5, 0.01% Brij-35, 10 mM MgCl2, and 1 mM EGTA). Recombinant GST-tagged JAK enzymes and a GFP-tagged STAT1 peptide substrate were obtained from Life Technologies.
(§4) Serially or discretely diluted compounds were pre-incubated with each of the four JAK enzymes and the substrate in white 384-well microplates (Corning) at ambient temperature for 1 h. ATP was subsequently added to initiate the kinase reactions in 10 μL total volume, with 1% DMSO. […] Kinase reactions were allowed to proceed for 1 hour at ambient temperature before a 10 μL preparation of EDTA (10 mM final concentration) and Tb-anti-pSTAT1 (pTyr701) antibody (Life Technologies, 2 nM final concentration) in TR-FRET dilution buffer (Life Technologies) was added. The plates were allowed to incubate at ambient temperature for 1 h before being read on the EnVision reader (Perkin Elmer). Emission ratio signals (520 nm/495 nm) were recorded and utilized to calculate the percent inhibition values based on DMSO and background controls.
(§5) For dose-response analysis, percent inhibition data were plotted vs. compound concentrations, and IC50 values were determined from a 4-parameter robust fit model with the Prism software (GraphPad Software). Results were expressed as pIC50 (negative logarithm of IC50) and subsequently converted to pKi (negative logarithm of dissociation constant, Ki) using the Cheng-Prusoff equation.
(In general: Time-resolved FRET reads energy transfer from a long-lived donor to a nearby acceptor.)

Experiment [3] concerns the target JAK3 (Homo sapiens (Human), UniProt P52333). The experiment is described as follows: Biochemical JAK3 kinase assay (LanthaScreen). Conditions: for JAK3 (pKi)-JAK1 (pKi): selectivity JAK3 over JAK1, difference of pKi. The method, boiled down: as §1
Experiment [4] deals with Tyk2 (Homo sapiens (Human), UniProt P29597). The experiment in a line: Biochemical Tyk2 kinase assay (LanthaScreen). How it is done: as §2, §3, §4, §5
Experiment [5] concerns IL-2 stimulated STAT5 phosphorylation in Tall-1 human T cell line (JAK3). The experiment in a line: Cellular JAK3 potency assay: inhibition of IL-2 stimulated pSTAT5 in Tall-1 T cells. It is filed as cell-based. Conditions: IL-2 stimulated pSTAT5, Tall-1 T cells. The method, boiled down: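 Tall-1 cells, 45,000 per well, preincubated 1 hour with compound at 37 °C, then stimulated 30 minutes with IL-2 at 300 ng/ml final. pSTAT5 (Tyr694/699) in lysates quantified by AlphaLISA SureFire Ultra. pIC50 derived from inhibition curves, given as mean with SD.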

Consider ten molecules from patent US11697648B2, “Fused pyrimidine pyridinone compounds as JAK inhibitors” (THERAVANCE BIOPHARMA R&D IP, LLC, priority 2019, dated 2023).

Sequence of JAK3 (P52333 whole entry): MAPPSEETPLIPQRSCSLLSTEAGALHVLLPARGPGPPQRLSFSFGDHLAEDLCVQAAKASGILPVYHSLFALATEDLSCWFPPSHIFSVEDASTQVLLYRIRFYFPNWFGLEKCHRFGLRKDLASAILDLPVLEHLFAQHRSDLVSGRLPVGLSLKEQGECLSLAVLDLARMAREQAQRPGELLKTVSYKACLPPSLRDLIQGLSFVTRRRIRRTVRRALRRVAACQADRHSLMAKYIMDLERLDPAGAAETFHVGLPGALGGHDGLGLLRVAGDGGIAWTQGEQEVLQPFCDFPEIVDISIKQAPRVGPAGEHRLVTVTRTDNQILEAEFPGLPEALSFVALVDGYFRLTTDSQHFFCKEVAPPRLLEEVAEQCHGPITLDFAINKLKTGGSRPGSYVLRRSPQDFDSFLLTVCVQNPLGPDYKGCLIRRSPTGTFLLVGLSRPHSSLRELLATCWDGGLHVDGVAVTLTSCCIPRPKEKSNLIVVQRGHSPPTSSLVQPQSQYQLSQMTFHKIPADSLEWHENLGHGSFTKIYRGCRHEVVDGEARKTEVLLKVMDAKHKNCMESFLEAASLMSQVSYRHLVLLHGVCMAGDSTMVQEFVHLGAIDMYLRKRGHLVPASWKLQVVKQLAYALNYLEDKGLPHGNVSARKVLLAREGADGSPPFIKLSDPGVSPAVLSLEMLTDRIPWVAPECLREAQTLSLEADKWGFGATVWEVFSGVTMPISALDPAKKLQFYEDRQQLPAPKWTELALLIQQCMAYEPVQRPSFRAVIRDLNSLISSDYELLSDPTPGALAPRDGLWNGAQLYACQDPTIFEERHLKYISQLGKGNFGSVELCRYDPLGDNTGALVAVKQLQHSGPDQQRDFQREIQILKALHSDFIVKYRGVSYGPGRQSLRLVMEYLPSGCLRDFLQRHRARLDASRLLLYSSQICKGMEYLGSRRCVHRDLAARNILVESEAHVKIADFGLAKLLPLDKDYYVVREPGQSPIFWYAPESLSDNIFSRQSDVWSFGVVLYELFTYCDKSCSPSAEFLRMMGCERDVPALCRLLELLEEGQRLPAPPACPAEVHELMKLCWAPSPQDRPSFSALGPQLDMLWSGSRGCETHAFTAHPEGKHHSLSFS
Sequence of JAK2 (O60674 whole entry): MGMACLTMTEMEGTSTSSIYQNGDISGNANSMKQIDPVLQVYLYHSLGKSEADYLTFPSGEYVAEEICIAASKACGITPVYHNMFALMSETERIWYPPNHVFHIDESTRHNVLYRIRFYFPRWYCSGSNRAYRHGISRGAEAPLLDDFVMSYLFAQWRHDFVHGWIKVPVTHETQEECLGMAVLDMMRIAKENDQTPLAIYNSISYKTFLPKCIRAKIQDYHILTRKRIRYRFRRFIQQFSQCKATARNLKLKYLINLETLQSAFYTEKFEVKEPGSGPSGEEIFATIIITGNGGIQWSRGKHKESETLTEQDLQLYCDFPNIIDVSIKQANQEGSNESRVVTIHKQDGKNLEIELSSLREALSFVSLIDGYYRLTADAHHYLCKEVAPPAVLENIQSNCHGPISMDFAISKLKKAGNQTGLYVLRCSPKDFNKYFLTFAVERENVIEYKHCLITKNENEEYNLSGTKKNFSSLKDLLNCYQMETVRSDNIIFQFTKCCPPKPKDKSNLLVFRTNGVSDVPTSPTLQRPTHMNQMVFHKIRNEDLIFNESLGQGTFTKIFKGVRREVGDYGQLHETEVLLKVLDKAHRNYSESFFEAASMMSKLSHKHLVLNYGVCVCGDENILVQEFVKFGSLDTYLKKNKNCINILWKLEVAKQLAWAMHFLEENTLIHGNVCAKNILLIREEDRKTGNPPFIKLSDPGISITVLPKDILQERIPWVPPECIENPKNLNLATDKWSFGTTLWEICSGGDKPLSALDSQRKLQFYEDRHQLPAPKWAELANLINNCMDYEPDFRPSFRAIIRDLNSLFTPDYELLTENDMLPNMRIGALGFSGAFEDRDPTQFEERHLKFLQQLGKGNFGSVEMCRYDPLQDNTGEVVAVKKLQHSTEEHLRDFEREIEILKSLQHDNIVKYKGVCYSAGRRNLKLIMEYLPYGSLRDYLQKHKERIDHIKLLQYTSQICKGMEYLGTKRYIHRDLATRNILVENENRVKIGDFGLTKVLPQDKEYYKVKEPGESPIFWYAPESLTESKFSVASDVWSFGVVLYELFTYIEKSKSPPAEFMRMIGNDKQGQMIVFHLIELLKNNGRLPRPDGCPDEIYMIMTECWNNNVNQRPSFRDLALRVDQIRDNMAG
Sequence of JAK1 (P23458 whole entry): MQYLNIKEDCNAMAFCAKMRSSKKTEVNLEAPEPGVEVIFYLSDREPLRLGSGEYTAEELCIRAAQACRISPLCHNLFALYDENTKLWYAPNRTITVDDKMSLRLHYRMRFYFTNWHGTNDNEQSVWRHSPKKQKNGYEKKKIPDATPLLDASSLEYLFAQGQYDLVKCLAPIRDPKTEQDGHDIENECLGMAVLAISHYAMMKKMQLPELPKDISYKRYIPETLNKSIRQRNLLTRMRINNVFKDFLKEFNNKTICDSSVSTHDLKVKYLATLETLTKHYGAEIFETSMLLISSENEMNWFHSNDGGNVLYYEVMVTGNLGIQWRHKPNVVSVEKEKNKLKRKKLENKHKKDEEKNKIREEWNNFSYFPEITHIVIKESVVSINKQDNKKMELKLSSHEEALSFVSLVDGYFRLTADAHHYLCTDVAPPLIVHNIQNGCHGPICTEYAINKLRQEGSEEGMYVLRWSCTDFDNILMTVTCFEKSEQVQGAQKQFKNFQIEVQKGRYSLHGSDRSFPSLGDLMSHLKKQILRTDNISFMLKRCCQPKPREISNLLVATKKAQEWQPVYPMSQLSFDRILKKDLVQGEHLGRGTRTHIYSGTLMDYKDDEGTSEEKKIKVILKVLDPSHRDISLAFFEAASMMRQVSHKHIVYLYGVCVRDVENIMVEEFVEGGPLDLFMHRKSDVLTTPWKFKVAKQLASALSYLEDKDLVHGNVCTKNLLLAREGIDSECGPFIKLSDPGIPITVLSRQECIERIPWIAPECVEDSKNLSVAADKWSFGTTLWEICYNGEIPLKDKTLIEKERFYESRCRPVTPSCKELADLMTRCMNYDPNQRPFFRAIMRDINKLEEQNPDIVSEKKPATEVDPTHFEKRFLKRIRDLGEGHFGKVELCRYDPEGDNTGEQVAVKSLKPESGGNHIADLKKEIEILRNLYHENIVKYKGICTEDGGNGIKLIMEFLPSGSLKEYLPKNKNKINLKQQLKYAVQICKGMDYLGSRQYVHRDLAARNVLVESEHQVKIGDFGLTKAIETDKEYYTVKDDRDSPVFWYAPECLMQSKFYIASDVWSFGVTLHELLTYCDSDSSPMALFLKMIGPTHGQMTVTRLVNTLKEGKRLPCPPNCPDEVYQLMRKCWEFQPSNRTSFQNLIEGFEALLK
Sequence of Tyk2 (P29597 whole entry): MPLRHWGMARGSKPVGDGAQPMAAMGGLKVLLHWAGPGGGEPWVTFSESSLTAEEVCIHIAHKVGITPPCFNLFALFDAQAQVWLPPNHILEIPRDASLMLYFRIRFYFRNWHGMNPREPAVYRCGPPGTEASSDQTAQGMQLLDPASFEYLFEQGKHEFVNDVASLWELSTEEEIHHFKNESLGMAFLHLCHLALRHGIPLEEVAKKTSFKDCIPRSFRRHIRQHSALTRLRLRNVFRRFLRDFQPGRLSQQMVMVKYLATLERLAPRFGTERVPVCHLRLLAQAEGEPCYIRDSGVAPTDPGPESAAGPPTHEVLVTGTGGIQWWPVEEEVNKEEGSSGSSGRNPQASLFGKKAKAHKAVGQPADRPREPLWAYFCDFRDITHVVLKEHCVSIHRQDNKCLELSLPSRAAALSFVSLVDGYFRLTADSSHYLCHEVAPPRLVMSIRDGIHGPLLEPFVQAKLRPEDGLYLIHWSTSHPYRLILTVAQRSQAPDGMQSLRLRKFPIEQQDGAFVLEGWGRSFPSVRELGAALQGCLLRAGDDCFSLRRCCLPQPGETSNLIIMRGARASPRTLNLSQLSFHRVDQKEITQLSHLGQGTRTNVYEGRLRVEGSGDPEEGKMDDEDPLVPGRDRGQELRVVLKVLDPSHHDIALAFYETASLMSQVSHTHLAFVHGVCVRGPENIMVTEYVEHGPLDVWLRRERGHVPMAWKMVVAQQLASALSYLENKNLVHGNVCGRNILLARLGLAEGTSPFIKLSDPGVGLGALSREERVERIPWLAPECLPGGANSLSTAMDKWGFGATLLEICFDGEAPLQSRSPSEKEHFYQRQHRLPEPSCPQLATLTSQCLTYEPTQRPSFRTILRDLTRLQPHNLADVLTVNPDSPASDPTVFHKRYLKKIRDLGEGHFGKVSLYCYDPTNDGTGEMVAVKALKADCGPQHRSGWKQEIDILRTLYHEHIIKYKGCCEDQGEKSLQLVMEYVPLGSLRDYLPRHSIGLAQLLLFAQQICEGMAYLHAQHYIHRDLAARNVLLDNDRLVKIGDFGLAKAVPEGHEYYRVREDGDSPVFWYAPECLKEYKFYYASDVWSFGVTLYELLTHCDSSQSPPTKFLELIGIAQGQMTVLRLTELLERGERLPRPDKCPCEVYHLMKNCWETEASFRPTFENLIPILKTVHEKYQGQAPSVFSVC

`C=CC(=O)N1CC(CCn2c(=O)ccc3cnc(Nc4cnn(CCOCC)c4)nc32)C1` [Example 56]: the “JAK 1 (pKi)” value in experiment [1] is recorded as “E (E represents a pKi value of 7 or below (Ki of 100 nM or above))”. For the same molecule, the “JAK 2 (pKi)” value in experiment [2] was “E (E represents a pKi value of 7 or below (Ki of 100 nM or above))”. In experiment [3], the “JAK 3 (pKi)” value is “B (B represents pKi value between 9 and 10 (Ki between 1 nM and 0.1 nM))”; the “JAK3 (pKi)-JAK1 (pKi)” value is on record as “A (A represents a value of 3 or above)”. Besides, the “Tyk 2 (pKi)” value in experiment [4] was “E (E represents a pKi value of 7 or below (Ki of 100 nM or above))”. Also, in experiment [5], the “Tall-1 (pIC50)” value is “C (C represents a pIC50 value between 6 and 6.7 (IC50 between 1 μM and 200 nM))”.

Turning to `C=CC(=O)N1CC(CCn2c(=O)ccc3cnc(Nc4cnn(CC(C)(C)O)c4)nc32)C1` [Example 57], the “JAK 1 (pKi)” value in experiment [1] was “E (E represents a pKi value of 7 or below (Ki of 100 nM or above))”. Moreover, the “JAK 2 (pKi)” value in experiment [2] is “E (E represents a pKi value of 7 or below (Ki of 100 nM or above))”. In experiment [3], the “JAK 3 (pKi)” value is “B (B represents pKi value between 9 and 10 (Ki between 1 nM and 0.1 nM))”; the “JAK3 (pKi)-JAK1 (pKi)” value is recorded as “A (A represents a value of 3 or above)”. The “Tyk 2 (pKi)” value in experiment [4] is on record as “E (E represents a pKi value of 7 or below (Ki of 100 nM or above))”. Besides, in experiment [5], the “Tall-1 (pIC50)” value was “C (C represents a pIC50 value between 6 and 6.7 (IC50 between 1 μM and 200 nM))”.

With `C=CC(=O)N1CC(CCn2c(=O)ccc3cnc(Nc4cnn(C(C)(C)COC)c4)nc32)C1` [Example 58], the “JAK 1 (pKi)” value in experiment [1] is given as “E (E represents a pKi value of 7 or below (Ki of 100 nM or above))”. The “JAK 2 (pKi)” value in experiment [2] is recorded as “E (E represents a pKi value of 7 or below (Ki of 100 nM or above))”. Moreover, in experiment [3], the “JAK 3 (pKi)” value is “B (B represents pKi value between 9 and 10 (Ki between 1 nM and 0.1 nM))”; the “JAK3 (pKi)-JAK1 (pKi)” value was “A (A represents a value of 3 or above)”. In experiment [4], the “Tyk 2 (pKi)” value is listed as “E (E represents a pKi value of 7 or below (Ki of 100 nM or above))”. The “Tall-1 (pIC50)” value in experiment [5] was “B (B represents a pC50 value between 6.7 (included) and 7.5 (IC50 between 200 nM and 32 nM))”.

Consider `C=CC(=O)N1CC(CCn2c(=O)ccc3cnc(Nc4ccc5[nH]c(=O)oc5c4)nc32)C1` [Example 59], for which, in experiment [1], the “JAK 1 (pKi)” value is “E (E represents a pKi value of 7 or below (Ki of 100 nM or above))”. The “JAK 2 (pKi)” value in experiment [2] was “E (E represents a pKi value of 7 or below (Ki of 100 nM or above))”. In experiment [3], the “JAK 3 (pKi)” value is “B (B represents pKi value between 9 and 10 (Ki between 1 nM and 0.1 nM))”; the “JAK3 (pKi)-JAK1 (pKi)” value is on record as “A (A represents a value of 3 or above)”. Also, the “Tyk 2 (pKi)” value in experiment [4] is “E (E represents a pKi value of 7 or below (Ki of 100 nM or above))”. Also, the “Tall-1 (pIC50)” value in experiment [5] was “C (C represents a pIC50 value between 6 and 6.7 (IC50 between 1 μM and 200 nM))”.

For the molecule `C=CC(=O)N1CC(CCn2c(=O)ccc3cnc(Nc4cccc(C(=O)N5CCCCC5)c4)nc32)C1` [Example 64], the “JAK 1 (pKi)” value in experiment [1] is “E (E represents a pKi value of 7 or below (Ki of 100 nM or above))”. Also, the “JAK 2 (pKi)” value in experiment [2] is reported as “E (E represents a pKi value of 7 or below (Ki of 100 nM or above))”. In addition, in experiment [3], the “JAK 3 (pKi)” value was “B (B represents pKi value between 9 and 10 (Ki between 1 nM and 0.1 nM))”; the “JAK3 (pKi)-JAK1 (pKi)” value is “A (A represents a value of 3 or above)”. In addition, the “Tyk 2 (pKi)” value in experiment [4] was “E (E represents a pKi value of 7 or below (Ki of 100 nM or above))”. The “Tall-1 (pIC50)” value in experiment [5] was “C (C represents a pIC50 value between 6 and 6.7 (IC50 between 1 μM and 200 nM))”.

Regarding `C=CC(=O)N1CC(CCn2c(=O)ccc3cnc(Nc4cccc(C(=O)N5CCOCC5)c4)nc32)C1` [Example 65], the “JAK 1 (pKi)” value in experiment [1] is on record as “E (E represents a pKi value of 7 or below (Ki of 100 nM or above))”. In experiment [2], the “JAK 2 (pKi)” value is recorded as “E (E represents a pKi value of 7 or below (Ki of 100 nM or above))”. Besides, in experiment [3], the “JAK 3 (pKi)” value was “B (B represents pKi value between 9 and 10 (Ki between 1 nM and 0.1 nM))”; the “JAK3 (pKi)-JAK1 (pKi)” value is “A (A represents a value of 3 or above)”. The “Tyk 2 (pKi)” value in experiment [4] was “E (E represents a pKi value of 7 or below (Ki of 100 nM or above))”. The “Tall-1 (pIC50)” value in experiment [5] was “C (C represents a pIC50 value between 6 and 6.7 (IC50 between 1 μM and 200 nM))”.

Regarding `C=CC(=O)N1CC(CCn2c(=O)ccc3cnc(Nc4cccc(N5CCCCC5)c4)nc32)C1` [Example 68], the “JAK 1 (pKi)” value in experiment [1] is “E (E represents a pKi value of 7 or below (Ki of 100 nM or above))”. In experiment [2], the “JAK 2 (pKi)” value was “E (E represents a pKi value of 7 or below (Ki of 100 nM or above))”. In experiment [3], the “JAK 3 (pKi)” value was “B (B represents pKi value between 9 and 10 (Ki between 1 nM and 0.1 nM))”; the “JAK3 (pKi)-JAK1 (pKi)” value is listed as “A (A represents a value of 3 or above)”. Besides, the “Tyk 2 (pKi)” value in experiment [4] is on record as “E (E represents a pKi value of 7 or below (Ki of 100 nM or above))”. The “Tall-1 (pIC50)” value in experiment [5] is “C (C represents a pIC50 value between 6 and 6.7 (IC50 between 1 μM and 200 nM))”.

With `C=CC(=O)N1CC(CCn2c(=O)ccc3cnc(Nc4ccc(-n5ccnc5)cc4)nc32)C1` [Example 73], the “JAK 1 (pKi)” value in experiment [1] is listed as “E (E represents a pKi value of 7 or below (Ki of 100 nM or above))”. In addition, the “JAK 2 (pKi)” value in experiment [2] is “E (E represents a pKi value of 7 or below (Ki of 100 nM or above))”. In experiment [3], the “JAK 3 (pKi)” value is “C (C represents a pKi value between 8 and 9 (Ki between 10 nM and 1 nM))”; the “JAK3 (pKi)-JAK1 (pKi)” value is on record as “B (B represents a value of 2.5 to 3)”. Moreover, the “Tyk 2 (pKi)” value in experiment [4] is reported as “E (E represents a pKi value of 7 or below (Ki of 100 nM or above))”. For the same molecule, in experiment [5], the “Tall-1 (pIC50)” value is “C (C represents a pIC50 value between 6 and 6.7 (IC50 between 1 μM and 200 nM))”.

Regarding `C=CC(=O)N1CC(CCn2c(=O)ccc3cnc(Nc4ccc(N5CCN(C(=O)C(C)C)CC5)cc4)nc32)C1` [Example 75], in experiment [1], the “JAK 1 (pKi)” value is listed as “E (E represents a pKi value of 7 or below (Ki of 100 nM or above))”. Further, the “JAK 2 (pKi)” value in experiment [2] was “E (E represents a pKi value of 7 or below (Ki of 100 nM or above))”. Moreover, in experiment [3], the “JAK 3 (pKi)” value was “C (C represents a pKi value between 8 and 9 (Ki between 10 nM and 1 nM))”; the “JAK3 (pKi)-JAK1 (pKi)” value was “B (B represents a value of 2.5 to 3)”. For the same molecule, the “Tyk 2 (pKi)” value in experiment [4] is given as “E (E represents a pKi value of 7 or below (Ki of 100 nM or above))”. Further, the “Tall-1 (pIC50)” value in experiment [5] was “C (C represents a pIC50 value between 6 and 6.7 (IC50 between 1 μM and 200 nM))”.

Regarding `C=CC(=O)N1CC(CCn2c(=O)ccc3cnc(Nc4ccc5[nH]cnc5c4)nc32)C1` [Example 84], in experiment [1], the “JAK 1 (pKi)” value is listed as “E (E represents a pKi value of 7 or below (Ki of 100 nM or above))”. In experiment [2], the “JAK 2 (pKi)” value is listed as “E (E represents a pKi value of 7 or below (Ki of 100 nM or above))”. In experiment [3], the “JAK 3 (pKi)” value was “B (B represents pKi value between 9 and 10 (Ki between 1 nM and 0.1 nM))”; the “JAK3 (pKi)-JAK1 (pKi)” value is listed as “A (A represents a value of 3 or above)”. Further, the “Tyk 2 (pKi)” value in experiment [4] is “E (E represents a pKi value of 7 or below (Ki of 100 nM or above))”. Besides, the “Tall-1 (pIC50)” value in experiment [5] is “C (C represents a pIC50 value between 6 and 6.7 (IC50 between 1 μM and 200 nM))”.
